Experimental findings from patent US10329626B2, “NOL3 is a predictor of patient outcome” (priority 2009, dated 2019) are described below.

Like-named read-outs stand apart in the source and are kept apart here.

One series concerns tumor cells. The series is described as follows: Apoptotic cells staining positive with Annexin-V. In kind it is cell-based.
The next series has as its system caspase-3. The series is described as follows: Activated caspase-3 in lysates of treated tumor neurospheres (immunoblot). The series is classed as cell-based, human. As to conditions: tumor neurospheres treated for 72 hours. Background: Immunoblotting shows a protein as a band on a membrane.
Series [1] deals with LN827 cells. The series is described as follows: Apoptosis in LN827 cells after siRNA knockdown of NOL3. The series is classed as cell-based.
In series [2] the test system is LN827 cells. Put plainly: LN827 cell growth. The series is classed as cell-based.
The next series has as its system caspase 3/7. The series is described as follows: Caspase 3/7 activation in cells. In kind it is cell-based. From the text:
Next we tested blockade of the growth factor receptor EGFR with the dual EGFR and HER2 kinase inhibitor PKI166 (Bruns et al., 2000).

In another series the test system is LN827 and U87 cells. Put plainly: Glioma cell growth, cell line not given (figures: LN827 and U87). The series is classed as cell-based.
The subject of series [3] is cytoplasmic cytochrome c and Smac/Diablo. The series is described as follows: Mitochondrial outer membrane permeabilization: cytoplasmic cytochrome c and Smac/Diablo in LN827 cells. The series is classed as cell-based. From the text: Multiple upstream pro-apoptotic signals converge at the level of the mitochondria, resulting in mitochondrial outer membrane permeabilization (MOMP) and release of the pro-apoptotic mediators cytochrome c and Smac/Diablo (FIG. 1A).

For the next series, the system named is PDGFR. The series is described as follows: PDGFR abundance and activation state in LN827 cells (blot). The series is classed as cell-based.
The subject of the next series is Erk 1/2. The series is described as follows: Erk 1/2 phosphorylation in LN827 cells (Western blot). The conditions noted are these: six hours.
Series [4] concerns primary human glioma tumor neurospheres. Put plainly: Primary human glioma tumor neurosphere numbers. In kind it is cell-based. As to conditions: neurospheres derived from 2 different patients with GBM.
The next series has as its system BCL-2 family of proteins. Put plainly: Expression of BCL-2 family proteins in LN827 cells (Western blot). The series is classed as cell-based.
The subject of another series is NOL3 protein. Put plainly: Western blot of NOL3 expression. In kind it is cell-based. As to conditions: over time.
Series [5] relates to genes in the apoptotic pathway. From the text: Table 1 depicts data obtained from mRNA microanalysis for expression of genes in the apoptotic pathway.
Another series concerns NOL3 mRNA. Put plainly: Independent quantitative RT-PCR analysis of NOL3. The series is classed as cell-based.
In the next series the test system is Akt. Put plainly: Akt (Ser473) and Bad phosphorylation in LN827 cells (immunoblot). In kind it is cell-based.
Series [6] can be described thus: Tissue concentrations of LBW242 after daily parenteral dosing. As to conditions: 50 mg/kg/d parenterally; for concentration at 14 days: mouse, other: parenteral, after 14 days of daily dosing. In kind it is in vivo, mice. From the text: For treatment of intracranial tumors, the blood-brain barrier (BBB) is an impediment to drug bioavailability. […].
The subject of a further series is U87 cells. The series is described as follows: U87 cell growth. The series is classed as cell-based. As to conditions: single agent at concentrations of up to 50 μM.
For series [7], the system named is LN827 cells. Put plainly: Orthotopic glioma model, LN827 cells implanted into brains of mice, bioluminescence imaging. In kind it is in vivo. The conditions noted are these: AMN107 100 mg/kg per day, LBW242 50 mg/kg twice per day, oral gavage; established tumors.

`Cc1cn(-c2cc(NC(=O)c3ccc(C)c(Nc4nccc(-c5cccnc5)n4)c3)cc(C(F)(F)F)c2)cn1` [AMN107]: the “apoptotic cells staining positive with Annexin-V” value in the series with tumor cells is listed as “small increase in apoptosis”. Also, the caspase-3 activation entry in the series on caspase-3 is “minimal activation”.
With `COc1cc([C@@H]2c3cc4c(cc3[C@@H](O[C@@H]3O[C@@H]5CO[C@@H](C)O[C@H]5[C@H](O)[C@H]3O)[C@H]3COC(=O)[C@H]23)OCO4)cc(OC)c1O` [etoposide], the “effect of NOL3 depletion on the induction of apoptosis” value in the series on LN827 cells [1] (NOL3 siRNA knockdown) is “no effect on the induction of apoptosis”.
For `Cc1ccc(NC(=O)c2ccc(CN3CCN(C)CC3)cc2)cc1Nc1nccc(-c2cccnc2)n1` [imatinib], in the series on LN827 cells [2] (imatinib at 10 μM, LN827 cells), the “effect on cell growth” value is recorded as “no effect on cell growth”. For the same compound, the “concentrations at which inhibition of LN827 cell growth was observed” value in the series on LN827 cells [2] (mono-therapy) is over 20 µM. Further, the “caspase 3/7 activation” value in the series on caspase 3/7 is “no activation of caspase 3 or 7”. Also, the “effect on cells over four days of treatment” value with LN827 and U87 cells is “only mild cytostasis”. Further, in the series on LN827 and U87 cells (single agent), the “doses at which cell growth was inhibited” value was over 10 µM. Also, in series [3] (LN827 cells), the “concentration at which MOMP was observed” value came to 2.5 µM. Further, the “overall abundance of PDGFR” value with PDGFR (LN827 cells) is reported as “no effect”. Besides, in the series on PDGFR (imatinib at 2.5 uM in LN827 cells), the “activation state of PDGFR” value is given as “almost completely abolished”. The “phosphorylation of Erk 1/2” value in the series on Erk 1/2 is recorded as “did not inhibit phosphorylation of Erk 1/2”. In addition, the neurosphere numbers result in series [4] was “stand-alone activity”. The caspase-3 activation result in the series with caspase-3 is given as “no appreciable caspase-3 activation”. In addition, in the series with BCL-2 family of proteins, the “expression of anti- or pro-apoptotic members of the BCL-2 family of proteins” value is recorded as “A significant change in expression was not observed”. Moreover, the NOL3 protein levels entry in the series with NOL3 protein is on record as “correlative decrease in NOL3 protein levels”. Also, in series [5], the “NOL3 expression in individual multi-well screens” value is “downregulate NOL3 in 7 individual multi-well screens”. For the same compound, the “change in mRNA expression of pro- and anti-apoptotic mediators” value in [5] (imatinib 10 μM) is recorded as “significant change in the expression of only one gene tested: NOL3”. For the same compound, the “NOL3 mRNA expression” value in the series with NOL3 mRNA was “significantly reduced NOL3 mRNA expression”. In the series on Akt, the Akt phosphorylation result is “did not inhibit Akt phosphorylation” and the “downstream phosphorylation of Bad” value was “nor did it inhibit the downstream phosphorylation of Bad”.
Take `C[C@@H](Nc1ncnc2[nH]c(-c3ccc(O)cc3)cc12)c1ccccc1` [PKI166]: the “caspase 3/7 activation” value with caspase 3/7 is recorded as “increased levels of caspase 3/7 activation”.
Turning to `CNC(C)C(=O)NC(C(=O)N1CCC2CCN(CCc3ccccc3)CC21)C1CCCCC1` (centres unmarked) [LBW242, N-[1-cyclohexyl-2-oxo-2-(6-phenethyl-octahydro-pyrrolo[2,3-c]pyridin-1-yl)-ethyl]-2-methylamino-propionamide], the “effect on the growth of LN827 cells” value in the series with LN827 cells [2] (single agent at concentrations of up to 50 μM, data not shown) is given as “no effect”. In addition, the “effect on cells over four days of treatment” value in the series on LN827 and U87 cells is given as “only mild cytostasis”. In addition, the “cytochrome c or Smac/Diablo levels” value in series [3] (as a single agent or in combination with imatinib) was “no appreciable effect”. In addition, the “PDGFR abundance or activity” value in the series on PDGFR (LN827 cells) is on record as “no effect”. The “crossing of the blood-brain barrier” value in series [6] is recorded as “able to cross even the intact BBB”. The concentration at 14 days in [6] (SK-OV-3 tumor-bearing nude mice, read-out: long-term steady-state concentration in tumors) was over 60 µM; in [6] (nude, brain, read-out: tissue concentration in normal brain), about 25 µM. Moreover, the “effect on the growth of U87 cells” value with U87 cells was “no effect”. For the same compound, the neurosphere numbers entry in [4] is reported as “stand-alone activity”. The “apoptotic cells staining positive with Annexin-V” value in the series with tumor cells is given as “minimal change in basal apoptotic level”. Moreover, the caspase-3 activation result with caspase-3 was “no appreciable caspase-3 activation”. Also, in the series on LN827 cells [7], the “tumor growth (tumor burden)” value was “no appreciable effect on tumor growth”. Moreover, the cellular apoptosis entry in the series with LN827 cells [1] (depletion of NOL3 (siRNA) combined with LBW242, LN827 cells) is “significant increase in cellular apoptosis”.
